system: Escherichia coli strain ATCC25922; test: standard microdilution assay to determine minimum inhibitory concentrations (MICs); type: cell-based; details: Escherichia coli strain ATCC25922, microdilution
Outline: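 MICs come from CLSI-guided microdilution in 100 μl, run alongside reference-strain performance standards. Values appear as "+" or "−" relative to 16 micrograms/ml, with "N/A" marking missing data.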

Compound	E. coli ATCC25922 MIC
N=C(N)NCCCNCc1ccc(-n2cc3cc(-c4cc(CC[C@H](O)CN)cc(OC(F)(F)F)c4)[nH]c3nc2=O)cc1 [Compound 239]	+ (a “+” indicates that the compound has an MIC value of 16 micrograms/ml or less)
CC(N)CCCc1cc(SC(F)(F)F)c(Cl)c(-c2cc3cn(-c4ccc(CNCCCNC(=N)N)cc4)c(=O)nc3[nH]2)c1 (stereo not shown) [Compound 288]	+ (a “+” indicates that the compound has an MIC value of 16 micrograms/ml or less)
N=C(N)NCCCNCc1ccc(-n2cc3cc(-c4c(F)c(F)cc(CCCCN)c4F)[nH]c3nc2=O)cc1 [Compound 6]	+ (a “+” indicates that the compound has an MIC value of 16 micrograms/ml or less)
CC(CCN)Cc1cc(OC(F)(F)F)cc(-c2cc3cn(-c4ccc(CNCCCNC(=N)N)cc4)c(=O)nc3[nH]2)c1 (stereo not shown) [Compound 93]	+ (a “+” indicates that the compound has an MIC value of 16 micrograms/ml or less)
NCc1cc(CCCO)cc(-c2cc3cn(-c4ccc(CNCCCN=C(N)N)cc4)c(=O)nc3[nH]2)c1 [Compound 79]	+ (a “+” indicates that the compound has an MIC value of 16 micrograms/ml or less)
CCc1cc(CCCC(C)NC(=N)N)cc(-c2cc3cn(-c4ccc(CNCCCNC(=N)N)cc4)c(=O)nc3[nH]2)c1Cl (stereo not shown) [Compound 284]	+ (a “+” indicates that the compound has an MIC value of 16 micrograms/ml or less)
CC(N)CCCc1cc(OC(F)F)c(F)c(-c2cc3cn(-c4ccc(CNCCCNC(=N)N)cc4)c(=O)nc3[nH]2)c1 (stereo not shown) [Compound 297]	+ (a “+” indicates that the compound has an MIC value of 16 micrograms/ml or less)
N=C(N)NCCCNCc1ccc(-n2cc3cc(-c4cc(Br)c(CC(O)CCN)c(OC(F)(F)F)c4)[nH]c3nc2=O)cc1 (stereo not shown) [Compound 43]	+ (a “+” indicates that the compound has an MIC value of 16 micrograms/ml or less)
N=C(N)NCCCNCc1ccc(-n2cc3cc(-c4cc(CCCO)cc(OC(F)(F)F)c4)[nH]c3nc2=O)cc1 [Compound 60]	− (a “−” indicates that the compound has an MIC value greater than 16 micrograms/ml)
N=C(N)NCCCNCc1ccc(-n2cc3cc(-c4cc(CSCCN)ccc4F)[nH]c3nc2=O)cc1 [Compound 7]	+ (a “+” indicates that the compound has an MIC value of 16 micrograms/ml or less)
N=C(N)NCCCNCc1ccc(-n2cc3cc(-c4cc(CCCCN)cc(OC(F)(F)F)c4)[nH]c3nc2=O)cc1 [Compound 221]	+ (a “+” indicates that the compound has an MIC value of 16 micrograms/ml or less)
Cc1c(Cl)cc(CCCCN)cc1-c1cc2cn(-c3ccc(CNCCCNC(=N)N)cc3)c(=O)nc2[nH]1 [Compound 108]	+ (a “+” indicates that the compound has an MIC value of 16 micrograms/ml or less)
N=C(N)NCCCNCc1ccc(-n2cc3cc(-c4cc(C5CC5CN)cc(C(F)(F)F)c4)[nH]c3nc2=O)cc1 (stereo not shown) [Compound 110]	+ (a “+” indicates that the compound has an MIC value of 16 micrograms/ml or less)
N=C(N)NCCCNCc1ccc(-n2cc3cc(-c4cc(CCCCN)cc(OC(F)F)c4Cl)[nH]c3nc2=O)cc1 [Compound 214]	+ (a “+” indicates that the compound has an MIC value of 16 micrograms/ml or less)
C[C@H](N)CCCc1cc(SC(F)F)cc(-c2cc3cn(-c4ccc(CNCCCNC(=N)N)cc4)c(=O)nc3[nH]2)c1 [Compound 305]	+ (a “+” indicates that the compound has an MIC value of 16 micrograms/ml or less)
C[C@H](NCCCNC(=N)N)c1ccc(-n2cc3cc(-c4cc(CCCC(C)(C)N)cc(OC(F)(F)F)c4)[nH]c3nc2=O)cc1 [Compound 264]	+ (a “+” indicates that the compound has an MIC value of 16 micrograms/ml or less)
CC(N)CCCc1cc(OC(F)(F)F)c(Cl)c(-c2cc3cn(-c4ccc(C(C)NCCCNC(=N)N)cc4)c(=O)nc3[nH]2)c1 (stereo not shown) [Compound 282]	+ (a “+” indicates that the compound has an MIC value of 16 micrograms/ml or less)
Cc1c(CCCCN)cc(-c2cc3cn(-c4ccc(CNCCCNC(=N)N)cc4)c(=O)nc3[nH]2)cc1[N+](=O)[O-] [Compound 121]	+ (a “+” indicates that the compound has an MIC value of 16 micrograms/ml or less)
CC(N)CCCc1cc(-c2cc3cn(-c4ccc(C(C)NCCCNC(=N)N)cc4)c(=O)nc3[nH]2)cc(C(O)C(F)(F)F)c1 (stereo not shown) [Compound 504]	+ (a “+” indicates that the compound has an MIC value of 16 micrograms/ml or less)
COC(=O)CC(NCCCNC(=N)N)c1ccc(-n2cc3cc(-c4cc(CCCC(C)N)cc(Cl)c4F)[nH]c3nc2=O)cc1 (stereo not shown) [Compound 487]	+ (a “+” indicates that the compound has an MIC value of 16 micrograms/ml or less)
CC(CCN)Cc1cc(F)c(Cl)c(-c2cc3cn(-c4ccc(CNCCCNC(=N)N)cc4)c(=O)nc3[nH]2)c1 (stereo not shown) [Compound 128]	+ (a “+” indicates that the compound has an MIC value of 16 micrograms/ml or less)
C=CC[C@H](NCCCNC(=N)N)c1ccc(-n2cc3cc(-c4cc(CCC[C@H](C)N)cc(Cl)c4F)[nH]c3nc2=O)cc1 [Compound 472]	+ (a “+” indicates that the compound has an MIC value of 16 micrograms/ml or less)
C=CC[C@H](NCCCNC(=N)N)c1ccc(-n2cc3cc(-c4cc(CCC[C@H](C)N)cc(C(F)(F)F)c4)[nH]c3nc2=O)cc1 [Compound 474]	+ (a “+” indicates that the compound has an MIC value of 16 micrograms/ml or less)
CC(N)CCCc1cc(Cl)c(F)c(-c2cc3cn(-c4ccc(C(NCCCNC(=N)N)C(=O)O)cc4)c(=O)nc3[nH]2)c1 (stereo not shown) [Compound 495]	+ (a “+” indicates that the compound has an MIC value of 16 micrograms/ml or less)
N=C(N)NCCCNCc1ccc(-n2cc3cc(-c4cc(CCCCN)cc(CF)c4C(F)(F)F)[nH]c3nc2=O)cc1 [Compound 244]	+ (a “+” indicates that the compound has an MIC value of 16 micrograms/ml or less)
CC(C)(N)CCCc1cc(Cl)c(F)c(-c2cc3cn(-c4ccc(CNCCCNC(=N)N)cc4)c(=O)nc3[nH]2)c1 [Compound 295]	+ (a “+” indicates that the compound has an MIC value of 16 micrograms/ml or less)
CC(N)CCCc1cc(SC(F)(F)F)cc(-c2cc3cn(-c4ccc(C5(NCCCNC(=N)N)CC5)cc4)c(=O)nc3[nH]2)c1 (stereo not shown) [Compound 500]	+ (a “+” indicates that the compound has an MIC value of 16 micrograms/ml or less)
N=C(N)NCCCNCc1ccc(-n2cc3cc(-c4cc(CCCCN)ccc4F)[nH]c3nc2=O)cc1F [Compound 54]	+ (a “+” indicates that the compound has an MIC value of 16 micrograms/ml or less)

same assay, conditions: Escherichia coli strain ATCC25922, standard microdilution assay

Compound	E. coli ATCC25922 MIC
C[C@H](N)c1ccc(-n2cc3cc(-c4cc(CCCC(C)(C)N)cc(Cl)c4F)[nH]c3nc2=O)cc1 [Compound 373]	− (a “−” indicates that the compound has an MIC value greater than 16 micrograms/ml)
CC(N)CCCc1cc(Cl)c(F)c(-c2cc3cn(-c4ccc(C(C)NCCCNC(N)=NCC5CC5)cc4)c(=O)nc3[nH]2)c1 (stereo not shown) [Compound 346]	+ (a “+” indicates that the compound has an MIC value of 16 micrograms/ml or less)
CC(N)CCCc1cc(Cl)c(F)c(-c2cc3cn(-c4ccc(C(C)NCCCNC(N)=NC5CCC5)cc4)c(=O)nc3[nH]2)c1 (stereo not shown) [Compound 368]	+ (a “+” indicates that the compound has an MIC value of 16 micrograms/ml or less)
C[C@H](N)CCCc1cc(F)c(F)c(-c2cc3cn(-c4ccc([C@H](C)NCCCNC(=N)N)cc4)c(=O)nc3[nH]2)c1 [Compound 462]	+ (a “+” indicates that the compound has an MIC value of 16 micrograms/ml or less)
Cc1c(CC(C)C)cc(CCC[C@H](C)N)cc1-c1cc2cn(-c3ccc(CNCCCNC(=N)N)cc3)c(=O)nc2[nH]1 [Compound 452]	+ (a “+” indicates that the compound has an MIC value of 16 micrograms/ml or less)
N=C(N)NCCCNCc1ccc(-n2cc3cc(-c4cc(CCC[C@@H](N)CO)cc(Cl)c4F)[nH]c3nc2=O)cc1 [Compound 342]	+ (a “+” indicates that the compound has an MIC value of 16 micrograms/ml or less)
C[C@H](N)CCCc1cc(-c2cc3cn(-c4ccc(CNCCCNC(=N)N)cc4)c(=O)nc3[nH]2)cc(F)c1F [Compound 465]	+ (a “+” indicates that the compound has an MIC value of 16 micrograms/ml or less)
CC(N)CCCc1cccc(-c2cc3cn(-c4ccc(C(C)NCCCNC(=N)N)cc4)c(=O)nc3[nH]2)n1 (stereo not shown) [Compound 369]	+ (a “+” indicates that the compound has an MIC value of 16 micrograms/ml or less)
C[C@H](N)CCCc1cc(-c2cc3cn(-c4ccc(CNCCCNC(=N)N)cc4)c(=O)nc3[nH]2)cc2c1COC2 [Compound 444]	+ (a “+” indicates that the compound has an MIC value of 16 micrograms/ml or less)
CC(N)COCc1cc(Cl)c(F)c(-c2cc3cn(-c4ccc(CNCCCNC(=N)N)cc4)c(=O)nc3[nH]2)c1 (stereo not shown) [Compound 375]	+ (a “+” indicates that the compound has an MIC value of 16 micrograms/ml or less)
CC(N)CCCc1cc(Cl)c(F)c(-c2cc3cn(-c4ccc(CN(C)CCCNC(=N)N)cc4)c(=O)nc3[nH]2)c1 (stereo not shown) [Compound 379]	+ (a “+” indicates that the compound has an MIC value of 16 micrograms/ml or less)
CC(N)CCCc1cc(OC(F)(F)F)cc(-c2cc3cn(-c4ccc(C(C)N)cc4)c(=O)nc3[nH]2)c1 (stereo not shown) [Compound 356]	− (a “−” indicates that the compound has an MIC value greater than 16 micrograms/ml)
C[C@H](NCCCNC(=N)N)c1ccc(-n2cc3cc(-c4cc(C[C@H]5C[C@@H](N)C5)cc(C(F)(F)F)c4)[nH]c3nc2=O)cc1 [Compound 395]	+ (a “+” indicates that the compound has an MIC value of 16 micrograms/ml or less)
CC(C)Cc1cc(CCC[C@H](C)N)cc(-c2cc3cn(-c4ccc(CNCCCNC(=N)N)cc4)c(=O)nc3[nH]2)c1F [Compound 431]	+ (a “+” indicates that the compound has an MIC value of 16 micrograms/ml or less)
CC(N)CCCc1cc(-c2cc3cn(-c4ccc(CNCCCCC(=N)N)cc4)c(=O)nc3[nH]2)cc(C(F)(F)F)c1 (stereo not shown) [Compound 365]	− (a “−” indicates that the compound has an MIC value greater than 16 micrograms/ml)
